Assays:
[1] = biological target: 20-HETE-Producing Enzyme derived from Human Renal Microsome; assay: Inhibitory action to 20-HETE-producing enzyme derived from human renal microsome; assay type: biochemical; conditions: human renal microsome fraction, tritium-arachidonic acid substrate, NADPH, 37° C., 1.5 hours, pH 7.4; read-out: IC50 (inhibition of 20-HETE production)
Protocol: Inhibitory Action to 20-HETE-Producing Enzyme derived from Human Renal Microsome
With regard to the compounds listed in the above table, their inhibitory actions to 20-HETE production were tested.
This test was carried out in accordance with a method mentioned in J. Pharmacol. Exp. Ther., volume 268, page 474 (1994).
A solution of the test compound adjusted to 1 μM using DMSO was added to a 50 mM of 3-morpholinopropanesulfonic acid buffer (MOPS) (pH 7.4) containing 5 mM of magnesium chloride and 1 mM of sodium ethylenediaminetetraacetate (EDTA), then human renal microsome fraction (Human Cell Culture Center, Anatomic Gift Foundation), [5,6,8,9,11,12,15]tritium-arachidonic acid and NADPH were added thereto as an enzymatic source, a substrate and a coenzyme, respectively and reaction was carried out at 37° C. for 1.5 hours. Formic acid was added to the reaction solution to stop the reaction and then acetonitrile was added thereto (final concentration: 50%). Amount of 20-HETE produced thereby was measured using a high performance liquid chromatography equipped with a radioactive substance detector having an ODS column (Biosil C18; manufactured by Biorad).
Amount of 20-HETE produced when no compound was added was defined as 100% and the concentration of the compound when production of 20-HETE was inhibited to an extent of 50% upon addition of a compound (IC50 value) was calculated.

| SMILES | melting point | IC50 [1] [nM] |
| --- | --- | --- |
| Cl.O/N=C/Nc1ccc(N2CCN(CCN3CCCC3)CC2)c(F)c1 [Compound 93] | 205 °C (dec.) | 135 |
| COc1cc(N2CCOCC2)ccc1N/C=N/O [Compound 130] | 189 to 190 °C (dec.) | 46.1 |
| COCCN(CCOC)c1ccc(N/C=N/O)cc1Cl [Compound 119] | 95 to 96.5 °C |  |
| Cc1cc(N2CCN(CCN3CCCC3)CC2)ccc1N/C=N/O.Cl [Compound 97] | 196 to 198 °C (dec.) | 758 |
| OCCC1CCN(c2ccc(N/C=N/O)cn2)CC1 [Compound 132] | 151 to 153 °C | 37.3 |
| CCN1CCN(c2ccc(N/C=N/O)cc2Cl)CC1 [Compound 74] | 207 to 209 °C | 73.2 |
| O/N=C/Nc1ccc(N2CCOCC2)nc1 [Compound 127, N-[2-(morpholino)pyridine-5-yl]-N′-hydroxyformamidine] |  | 215 |
| OCCC1CCN(c2ccc(N/C=N/O)cc2)CC1 [Compound 54] | 186 to 189 °C | 34.7 |
| CCN1CCN(c2ccc(N/C=N/O)cc2Br)CC1 [Compound 75] | 204.5 to 206.5 °C | 154 |
| O/N=C/Nc1ccc(N2CCSCC2)cc1 [Compound 1] | 138 to 141 °C |  |
| Cl.OCCN1CCN(c2ccc(N/C=N/O)cc2)CC1 [Compound 79] | 170 °C (dec.) | 71.9 |
| CCN1CCN(c2ccc(N/C=N/O)cc2F)CC1 [Compound 73] | 197 to 200 °C | 37.2 |
| CC(=O)N1CCN(c2ccc(N/C=N/O)cn2)CC1 [Compound 129] | 191 to 192 °C (dec.) | 8.3 |
| Cl.O/N=C/Nc1ccc(N2CCN(CCN3CCCC3)CC2)c(C(F)(F)F)c1 [Compound 96] | 229 to 231 °C (dec.) | 1530 |
| Cc1cc(N2CCCC3CCCCC32)ccc1N/C=N/O (stereo not drawn) [Compound 46] | 154 to 156 °C | 33 |
| Cl.O=C(CN1CCN(c2ccc(N/C=N/O)cc2Cl)CC1)N1CCOCC1 [Compound 100] | 110 to 114 °C | 36.3 |
| CCOC(=O)C1CCN(c2ccc(N/C=N/O)cc2Cl)CC1 [Compound 134] | 135 to 138 °C (dec.) | 4 |
| O=C(CN1CCN(c2ccc(N/C=N/O)cc2C(F)(F)F)CC1)N1CCOCC1 [Compound 103] | 75 to 77 °C | 21.4 |
| O/N=C/Nc1ccc(N2CCN(C3CCCCC3)CC2)cc1 [Compound 105] |  | 14.8 |

| SMILES | melting point | IC50 [1] [nM] |
| --- | --- | --- |
| O/N=C/Nc1ccc(N2CCOCC2)nc1 [Compound 128] | 172 to 174 °C |  |
| O/N=C/Nc1ccc(N2CCC3(CC2)OCCO3)cc1 [Compound 33] | 157 to 158.5 °C | 3.6 |
| O/N=C/Nc1ccc(N2CCCCCCC2)cc1 [Compound 27] | 170 to 173 °C | 10.2 |
| Cc1cc(N2CCC(CCO)CC2)ccc1N/C=N/O [Compound 58] | 152 to 154 °C | 31.2 |
| Cc1cc(N2CCN(C3CCCCC3)CC2)ccc1N/C=N/O.Cl [Compound 111] | 230 to 232 °C (dec.) | 70.8 |
| Cl.O/N=C/Nc1ccc(N2CCN(CCN3CCCC3)CC2)c(Cl)c1 [Compound 94] | 161 to 163 °C | 222 |
| CCN1CCN(c2ccc(N/C=N/O)cc2C(F)(F)F)CC1 [Compound 77] | 158 to 159 °C | 509 |
| O/N=C/Nc1ccc(N2CCN(C3CCCCC3)CC2)c(C(F)(F)F)c1 [Compound 110] | 93 to 96 °C | 531 |
| Cl.O/N=C/Nc1ccc(N2CCN(C3CCCCC3)CC2)c(F)c1 [Compound 106] | 207 °C (dec.) | 105 |
| Cl.O=C(CN1CCN(c2ccc(N/C=N/O)cc2)CC1)N1CCOCC1 [Compound 98] | 167 to 169 °C (dec.) | 69 |
| CN(C)CCN1CCN(c2ccc(N/C=N/O)cc2)CC1.Cl [Compound 86] | 188 to 190 °C (dec.) | 962 |
| CN1CCN(c2ccc(N/C=N/O)cc2Cl)CC1 [Compound 68] | 188 to 189 °C | 107 |
| O/N=C/Nc1ccc(N2CCN(C3CCCCC3)CC2)c(Cl)c1 [Compound 107] |  | 41.9 |
| CCN(CC)C(=O)C1CCCN(c2ccc(N/C=N/O)cc2C(F)(F)F)C1 (stereo not drawn) [Compound 64] | 150 to 156 °C | 19.4 |
| CCN1CCN(c2ccc(N/C=N/O)cc2)CC1 [Compound 72] | 220 to 222 °C | 39.2 |
| Cl.O/N=C/Nc1ccc(N2CCN(C3CCCCC3)CC2)nc1 [Compound 123] | 224 to 226 °C (dec.) | 90.6 |
| Cc1cc(N2CCC3(CC2)OCCO3)ccc1N/C=N/O [Compound 39] | 147 to 150 °C | 4.3 |
| COCCN(CCOC)c1ccc(N/C=N/O)cc1 [Compound 133] | 97 to 98 °C | 340 |

Further lines, results first:

| melting point | IC50 [1] [nM] | SMILES |
| --- | --- | --- |
| 159 to 161 °C | 3.2 | O/N=C/Nc1ccc(N2CCC(O)CC2)c(F)c1 [Compound 48] |
| 174 to 176 °C | 5 | O/N=C/Nc1ccc(N2CCC3(CC2)OCCO3)c(Cl)c1 [Compound 35] |
| 180 to 182 °C (dec.) | 45.4 | Cl.OCCN1CCN(c2ccc(N/C=N/O)cc2F)CC1 [Compound 80] |
| 163 to 164 °C (dec.) | 46.9 | CC1CN(c2ccc(N/C=N/O)cc2Cl)CC(C)O1 (stereo not drawn) [Compound 9] |
|  | 16 | O/N=C/Nc1ccc(N2CC=CC2)c(Br)c1 [Compound 12] |
| 149 to 151 °C | 2.3 | O/N=C/Nc1ccc(N2CCSCC2)c(Br)c1 [Compound 4] |
| 137 to 138.5 °C | 3.6 | O/N=C/Nc1ccc(N2CCSCC2)c(Cl)c1 [Compound 3, N-hydroxyl-N′-(3-chloro-4-thiomorpholinophenyl)formamidine] |
| 137 to 139 °C | 5.7 | O/N=C/Nc1ccc(N2CCCCCCC2)c(F)c1 [Compound 28] |
| 118 to 121 °C | 12.5 | O/N=C/Nc1ccc(N2CC=CC2)c(Cl)c1 [Compound 11] |
| 136.5 to 138 °C | 18 | O/N=C/Nc1ccc(N2CC=CCC2)c(C(F)(F)F)c1 [Compound 19] |
| 94 to 96 °C | 3.5 | O/N=C/Nc1ccc(N2CCN(c3ccccn3)CC2)c(Cl)c1 [Compound 131] |
| 141 to 142 °C (dec.) | 3.2 | O/N=C/Nc1ccc(N2CCSCC2)c(F)c1 [Compound 2] |
| 200 to 202 °C (dec.) | 23.3 | Cl.OCCN1CCN(c2ccc(N/C=N/O)cc2Cl)CC1 [Compound 81] |
| 127 to 128.5 °C | 25.2 | O/N=C/Nc1ccc(N2CCCCCC2)c(C(F)(F)F)c1 [Compound 26] |
|  | 20.8 | O=C(CN1CCN(c2ccc(N/C=N/O)cc2Br)CC1)N1CCOCC1 [Compound 101] |
| 172 to 176 °C | 34.2 | OCCC1CCN(c2ccc(N/C=N/O)cc2F)CC1 [Compound 55] |
| 103.5 to 105 °C | 4.2 | O/N=C/Nc1ccc(N2CCCCCC2)c(Br)c1 [Compound 24] |
| 165 to 167 °C | 7 | O/N=C/Nc1ccc(N2CCC3(CC2)OCCO3)c(F)c1 [Compound 34] |
| 146 to 149 °C | 663 | Cc1cc(N2CC=CCC2)ccc1N/C=N/O [Compound 20] |
| 113 to 114 °C | 2.2 | O/N=C/Nc1ccc(N2CCCCCC2)c(Cl)c1 [Compound 23] |
| 129 to 130 °C | 3.9 | O/N=C/Nc1ccc(N2CC=CCC2)c(F)c1 [Compound 15] |
| 222 to 223 °C (dec.) | 293 | Cl.O/N=C/Nc1ccc(N2CCN(C3CCCCC3)CC2)c(Br)c1 [Compound 108] |
| 163 to 165 °C | 75.8 | O/N=C/Nc1ccc(N2CCN(CCN3CCCC3)CC2)c(Br)c1 [Compound 95] |
| 190 to 192 °C (dec.) | 44 | OCCN1CCN(c2ccc(N/C=N/O)cc2Br)CC1 [Compound 82] |
| 135 to 137.5 °C | 2.2 | O/N=C/Nc1ccc(N2CC=CCC2)c(Cl)c1 [Compound 16] |
| 112 to 115 °C | 2.1 | O/N=C/Nc1ccc(N2CCCCCC2)c(F)c1 [Compound 22] |
| 93 to 97 °C | 3.4 | O/N=C/Nc1ccc(N2CCC(O)CC2)c(Cl)c1 [Compound 49] |

Reference: patent US7214714B2, “20-hydroxyeicosatetraenoic acid production inhibitors” (Taisho Pharmaceutical Co. Ltd., priority 2001, dated 2007)
